In patent US20090209552A1, “Organic Compounds” (Novartis AG, priority 2006, published 2009):

Legend:
human CRTh2 [1] = biological target: T1, human CRTh2 (Homo sapiens, UniProt Q9Y5Y4); experiment: Filtration binding assay ([3H]-PGD2 competition on CHO.K1-CRTh2 membranes); set-up: expressed in transfected cells; host or cells: CHO.K1 (CHO.K1-CRTh2), membranes; conditions: [3H]-PGD2 2.5 nM, Cheng-Prussoff
T1 sequence (Q9Y5Y4 1-395): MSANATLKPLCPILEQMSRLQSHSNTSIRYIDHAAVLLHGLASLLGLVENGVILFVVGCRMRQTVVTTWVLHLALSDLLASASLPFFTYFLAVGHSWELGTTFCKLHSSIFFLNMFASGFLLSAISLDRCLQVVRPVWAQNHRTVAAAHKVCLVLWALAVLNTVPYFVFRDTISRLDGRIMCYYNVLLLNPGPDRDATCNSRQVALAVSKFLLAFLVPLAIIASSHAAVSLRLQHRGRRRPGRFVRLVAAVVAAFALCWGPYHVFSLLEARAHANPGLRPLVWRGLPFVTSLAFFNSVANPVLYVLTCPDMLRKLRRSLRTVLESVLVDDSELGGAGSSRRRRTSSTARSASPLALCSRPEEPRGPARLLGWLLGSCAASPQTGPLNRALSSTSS
Procedure: The binding of CRTh2 modulators is determined using membranes prepared from human CRTh2-expressing Chinese Hamster Ovary cells (CHO.K1-CRTh2). To produce cell membranes CHO.K1-CRTh2 cells cultured in roller bottles are harvested using cell dissociation buffer (Invitrogen). The cells are pelleted by centrifugation (167 g, 5 min). The cell pellet is incubated in hypotonic buffer (15 mM Tris-OH, 2 mM MgCl2, 0.3 mM EDTA, 1 mM EGTA, 1× Complete™ tablet) at 4° C. for 30 minutes. At 4° C. cells are homogenized using a Polytron®) (IKA Ultra Turrax T25) for 5 bursts of 1 second. The homogenate is centrifuged (Beckman Optima TM TL Ultracentrifuge, 48000 g, 30 minutes at 4° C.). The supernatant is discarded and the membrane pellet re-suspended in homogenisation buffer (75 mM Tris-OH, 12.5 mM MgCl2, 0.3 mM EDTA, 1 mM EGTA, 250 mM Sucrose, 1× Complete™ tablet. Membrane preparations are aliquoted and stored at […]. The protein content is estimated using Bradford Protein Assay Dye (Bio Rad).
The binding of [^3H]-PGD2 (157 Ci/mmol) to CHO.K1-CRTh2 membranes is determined in the absence (total binding) and presence (non-specific binding) of unlabelled PGD2 (1 μM). Subtraction of the cpm (counts per minute) of [^3H]-PGD2 binding in presence of excess unlabelled PGD2 from that observed in the absence of excess unlabelled PGD2 is defined as specific binding. Active CRTh2 antagonists are able to compete with [^3H]-PGD2 for binding to the CRTh2 receptor and are identified in a decrease in the number of cpm bound. […]
The plates are incubated at room temperature on a shaker for 1 hour, and then harvested (Tomtec Harvester 9600) onto GF/C filter plates using wash buffer (10 mM HEPES-KOH, pH 7.4). […] Plates are then counted using a Packard Top Count instrument, […]
Ki (dissociation constant for the inhibition) values for the CRTh2 antagonists are reported. Ki values are determined using Sigma Plots software, using the Cheng-Prussoff equation. […]

human CRTh2 [2] = biological target: T1, human CRTh2; experiment: CRTH2 cAMP functional assay in CHO.K1-CRTh2 cells; type: cell-based; set-up: expressed in transfected cells; host or cells: CHO.K1 (CHO.K1-CRTh2), whole cells; conditions: inhibition of PGD2-mediated attenuation of forskolin-induced cAMP accumulation in CHO.K1-CRTh2 cells
Procedure: where S is the concentration of radioligand and Kd is the dissociation constant. CRTH2 cAMP Functional Assay Protocol
This assay is conducted in CHO.K1-CRTh2 cells. cAMP is generated in the cell by stimulating cells with 5 μM forskolin, an adenylate cyclase activator. PGD2 is added to activate the CRTh2 receptor which results in the attenuation of the forskolin-induced cAMP accumulation. Potential CRTh2 antagonists are tested for their ability to inhibit the PGD2-mediated attenuation of the forskolin-induced cAMP accumulation in CHO.K1-CRTh2 cells.
For each concentration value on the dose-response curve, test compounds are prepared in assay stimulation buffer (HBSS, 5 mM HEPES, 10 μM IBMX±0.1% human serum albumin) containing DMSO (3% vol/vol) and 5 μL/well is added to an assay plate (384 well white optiplate).
CHO.K1-CRTh2 cultured in tissue culture flasks are washed with PBS and harvested with dissociation buffer. Cells are washed with PBS and re-suspended in stimulation buffer to a concentration of 0.4×10^6/mL and added to the assay plate (10 μL/well).
The assay plate is incubated at room temperature on a shaker for 15 minutes.
A mix of agonist (10 nM Prostaglandin D and 5 μM forskolin is prepared in assay stimulation buffer and added to the assay plate (5 μL/well).
In addition, a cAMP standard is serially diluted in assay stimulation buffer and added to separate empty wells on the assay plate (20 μL/well). The cAMP standard allows for the quantification of cAMP generated in CHO.K1-CRTH2 cells.
The assay plate is incubated at room temperature on a shaker for 60 minutes. […]
The assay plate is sealed with Topseal-S™ and incubated in the dark at room temperature on a shaker for 45 minutes. The plate is then counted using a Packard Fusion™ instrument. […]

| SMILES | Ki (human CRTh2 [1]) [µM] | IC50 (human CRTh2 [2]) [µM] |
| --- | --- | --- |
| N#Cc1cn(CC(=O)O)cc1-c1cc(C(F)(F)F)cc(S(=O)(=O)N2CCN(Cc3ccncc3)CC2)c1 [Example 3, {3-Cyano-4-[3-(4-pyridin-4-ylmethyl-piperazine-1-sulfonyl)-5-trifluoromethyl-phenyl]-pyrrol-1-yl}-acetic acid] | 0.017 | 0.002 |
| N#Cc1cn(CC(=O)O)cc1-c1cc(Cl)cc(S(=O)(=O)N2CCN(c3ccccc3F)CC2)c1 [Example 9, (3-{3-Chloro-5-[4-(2-fluoro-phenyl)-piperazine-1-sulfonyl]-phenyl}-4-cyano-pyrrol-1-yl)-acetic acid] | 0.049 | 0.026 |
| Cc1ccc(CNS(=O)(=O)c2cc(-c3cn(CC(=O)O)cc3C#N)cc(C(F)(F)F)c2)o1 [Example 8, (3-Cyano-4-{3-[(5-methyl-furan-2-ylmethyl)-sulfamoyl]-5-trifluoromethyl-phenyl}-pyrrol-1-yl)-acetic acid] | 0.002 | 0.005 |
